What was measured:
[1] = target: T1, MFSD7C interactions with ETC components (CYC1, NDUFA4, COX4i1, ATP5h, ATP5c1) (Mus musculus, UniProt Q91X85); experiment: Co-IP of HA-tagged MFSD7C with FLAG-tagged ETC components in transfected 293FT cells; format: cell-based, murine; settings: 10 μM or 40 μM heme for one hour before cell lysis, increasing level
T1 construct: expressed in transfected cells; host or cells: 293FT cells
Description: Co-transfection and immunoprecipitation. For co-IP, HA-tagged MFSD7C was co-transfected with FLAG-tagged HMOX1 (Origene Catalog No. MR203944), CYC1, COX4I1, NDUFA4, ATP5h, ATP5c1 into 293FT cells using TransIT®-LT1 Transfection Reagent (Mirus). Thirty-six hours after transfection, the cells were lysed using cold Lysis Buffer containing 20 mM Tris-HCl (pH 7.4), 150 mM NaCl, 0.1% NP-40, 10% glycerol, proteinase inhibitor (Sigma Catalog No. 4693132001), and phosphatase inhibitors (Sigma Catalog No. 4906845001). The clear supernatants from the lysate were incubated with M2-magnetic beads conjugated with anti-FLAG antibody (Sigma Catalog No. M8823) for 2 hours at 4° C. Then the beads were washed twice and eluted by the 3× FLAG peptides (Sigma Catalog No. F4799).
To determine the effect of heme on MFSD7C interactions with ETC components, HMOX1 or SERCA2b, 293FT cells were transiently transfected with HA-tagged murine MFSD7C and FLAG-tagged murine CYC1, NDUFA4, COX4i1, ATP5h, ATP5c1, HMOX1 or SERCA2b. 35 hrs later, co-transfected cells were incubated with DMSO (vehicle) or 10 μM or 40 μM of heme for one hour before lysis. Cell lysates were precipitated with anti-HA antibody, eluted with HA peptide, further precipitated with anti-FLAG antibody, eluted with FLAG peptide, and then subjected to Western blotting with anti-HA and anti-FLAG antibodies. […]

[2] = tested on: interactions between MFSD7C^ΔN and CYC1, NDUFA4, COX4i1, ATP5h and ATP5c1; experiment: Co-IP of HA-tagged MFSD7C^ΔN with ETC components; format: cell-based, murine; settings: heme treatment before lysis
Description: FIGS. 4A-4H show NTD of MFSD7C mediates heme effect on mitochondrial respiration. FIGS. 4A-4C show comparison of basal OCR (FIG. 4A), maximal OCR (FIG. 4B) and ECAR (FIG. 4C) of THP-1, 4B8, and 4B8^FL and 4B8^ΔN cells treated with vehicle or heme for 1 hour (n=18 separate experiments). […] Cells were incubated with FPT for 6 hrs, washed and reseeded in poly-lysine coated glass bottom dishes. After cells attached to the glass, medium containing 40 μM heme was added. Cells in the same field were imaged immediately and again 1 hour later. Relative FPT fluorescent intensities, normalized to THP-1, from three experiments are shown. (n=3 independent experiments). […] THP-1 cells were co-cultured with 4B8, 4B8^FL, or 4B8^ΔN in FPT solution for 6 hrs, washed and reseeded in poly-lysine coated glass bottom dishes. Cells were imaged by confocal laser-scanning microscopy. […] Representative images from three experiments are shown. Scale bar: 10 μm. […] THP-1, 4B8, 4B8^FL and 4B8^ΔN cells were treated with vehicle or heme for 1 hour and MMP was measured by using JC-10 Mitochondrial Membrane Potential Assay Kit followed by flow cytometry. […] Shown are representative Western blotting data (FIG. 4G) and quantification of band intensities from n=3 independent experiments (FIG. 4H). P-values were calculated using two-way ANOVA (*p<0.05, **p<0.01, ***p<0.005). […]

[3] = tested on: THP-1 cells; experiment: Mitochondrial membrane potential by TMRE and flow cytometry; format: cell-based, human; settings: heme 1 hour, reduced to similar levels as in 7CKO cells
Description: Mitochondrial membrane potential was measured using Abcam kit (Catalog No. ab113852). Briefly, BMDM, THP-1 and 7CKO cells were not treated or treated with […] for 1 hour. The cells were incubated with mitochondrial membrane potential indicator, 200 nM TMRE (tetramethylrhodamine, ethyl ester) for 20 minutes. The mean fluorescence intensity of TMRE were determined by flow cytometry.

[4] = tested on: 293T cells; experiment: Thermogenesis by FPT, parental 293T cells; format: cell-based, human; settings: heme for 1 hour
Description: Shown are representative graphs of OCR output of the indicated cells with or without hematin treatment and their responses to oligomycin, FCCP, and rotenone plus antimycin A (FIG. 12B), basal OCR (FIG. 12C), maximal OCR (FIG. 12D), and ECAR (FIG. 12E) from two separate experiments with n=10 biologically independent samples. Data are presented as mean value±standard deviation. Each dot represents one technical replicate. […] Parental and knockout cells were incubated with no probe or FPT for 6 hours, and then washed twice. A portion of FPT-treated cells was treated with heme for 1 hour. FPT fluorescence intensity was quantified by flow cytometry. Shown are representative plots from two separate experiments. P-values were calculated using two-way ANOVA (***p<0.001).
In the second approach, we used fluorescent polymeric thermometer (FPT), which we synthesized in-house (see above). Parental and knockout THP-1 cells were mixed together, washed and incubated with FPT in 5% w/v glucose solution for 6 hrs. The cells were washed with PBS twice and reseeded in dishes with glass bottom that was coated with poly-lysine. The cells were imaged under Confocal Laser-Scanning Microscopy at 37° C. […] Then the fluorescence intensities were determined by a flow cytometer.

T1 sequence (Q91X85 whole entry): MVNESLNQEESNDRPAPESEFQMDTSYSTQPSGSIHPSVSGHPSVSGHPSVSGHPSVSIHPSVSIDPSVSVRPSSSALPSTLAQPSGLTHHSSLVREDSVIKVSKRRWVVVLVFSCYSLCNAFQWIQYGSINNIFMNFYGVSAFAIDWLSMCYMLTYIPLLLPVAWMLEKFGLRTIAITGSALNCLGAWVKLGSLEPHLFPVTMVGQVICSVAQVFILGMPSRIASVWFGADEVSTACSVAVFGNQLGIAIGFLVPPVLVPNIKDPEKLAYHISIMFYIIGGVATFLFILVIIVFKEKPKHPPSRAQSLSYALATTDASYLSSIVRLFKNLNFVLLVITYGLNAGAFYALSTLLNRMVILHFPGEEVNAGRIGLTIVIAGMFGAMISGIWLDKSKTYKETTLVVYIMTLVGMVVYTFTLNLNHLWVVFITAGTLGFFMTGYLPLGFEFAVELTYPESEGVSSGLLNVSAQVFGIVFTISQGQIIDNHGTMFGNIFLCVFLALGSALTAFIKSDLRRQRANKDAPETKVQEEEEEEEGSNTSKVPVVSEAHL

C=CC1=C(C)c2cc3[n-]c(cc4[n-]c(cc5nc(cc1n2)C(C)=C5C=C)c(C)c4CCC(=O)O)c(CCC(=O)O)c3C.[Fe+2] [heme]
ETC components co-precipitated with MFSD7C [1]: less or very little ETC components co-precipitated with MFSD7C
disruption of interactions between MFSD7C^ΔN and ETC components (co-IP) [2]: failed to disrupt
MMP [3]: reduced
FTP intensity [4]: significantly stimulated

Reference: patent US20230313199A1, “TARGET FOR MODULATING BODY MASS” (Massachusetts Institute of Technology, priority 2020, published 2023)
